# Assay results as given in patent US20260028365A1 (BIOGEN MA INC., priority 2022, published 2026).
# Target: Tyk2 (Homo sapiens (Human), UniProt P29597)
# Test: pSTAT4 Cell Assay (MSD, NK92 cells)
# Format: cell-based
# Details: not given
# Tyk2, sequence (P29597 whole entry): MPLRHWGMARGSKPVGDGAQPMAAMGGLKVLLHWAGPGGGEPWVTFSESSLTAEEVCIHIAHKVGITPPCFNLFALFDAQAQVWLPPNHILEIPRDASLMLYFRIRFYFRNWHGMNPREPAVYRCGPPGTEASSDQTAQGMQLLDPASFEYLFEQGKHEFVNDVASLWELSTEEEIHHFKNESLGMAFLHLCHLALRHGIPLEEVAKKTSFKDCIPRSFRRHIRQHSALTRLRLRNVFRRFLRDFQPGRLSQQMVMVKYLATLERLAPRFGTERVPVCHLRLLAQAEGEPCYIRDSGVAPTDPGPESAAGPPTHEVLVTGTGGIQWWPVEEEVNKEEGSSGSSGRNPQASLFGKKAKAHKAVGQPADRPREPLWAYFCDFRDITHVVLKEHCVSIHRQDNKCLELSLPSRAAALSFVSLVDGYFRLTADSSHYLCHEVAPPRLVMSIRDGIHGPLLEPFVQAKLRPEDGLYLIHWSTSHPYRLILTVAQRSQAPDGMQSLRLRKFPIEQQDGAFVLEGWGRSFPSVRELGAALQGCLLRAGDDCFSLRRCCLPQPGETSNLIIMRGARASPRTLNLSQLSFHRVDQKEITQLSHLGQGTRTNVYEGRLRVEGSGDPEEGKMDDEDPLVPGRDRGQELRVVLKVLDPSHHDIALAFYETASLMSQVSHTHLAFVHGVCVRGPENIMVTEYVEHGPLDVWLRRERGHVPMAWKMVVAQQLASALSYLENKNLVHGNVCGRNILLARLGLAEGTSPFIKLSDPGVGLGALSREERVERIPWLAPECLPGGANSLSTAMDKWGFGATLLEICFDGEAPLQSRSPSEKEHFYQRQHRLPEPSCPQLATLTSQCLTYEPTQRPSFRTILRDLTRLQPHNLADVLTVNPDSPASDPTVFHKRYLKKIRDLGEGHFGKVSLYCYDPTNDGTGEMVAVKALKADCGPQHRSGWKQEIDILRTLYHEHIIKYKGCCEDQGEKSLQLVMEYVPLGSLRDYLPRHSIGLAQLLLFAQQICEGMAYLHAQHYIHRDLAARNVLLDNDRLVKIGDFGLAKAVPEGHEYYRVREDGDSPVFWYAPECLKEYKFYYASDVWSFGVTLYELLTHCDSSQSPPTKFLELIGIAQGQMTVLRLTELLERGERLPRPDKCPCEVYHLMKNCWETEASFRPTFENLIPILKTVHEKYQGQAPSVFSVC
row,IC50,SMILES
1,≤ 10 nM,"CC(=O)Nc1cc(Nc2ccnc(C(C)(F)F)n2)c(-c2csc(CC#N)n2)cn1 [Example 922, N-(5-(2-(cyanomethyl)thiazol-4-yl)-4-((2-(1,1-difluoroethyl)pyrimidin-4-yl)amino)pyridin-2-yl)acetamide]"
2,10 to 100 nM,"CCc1cc(Nc2cc(NC(C)=O)ncc2-c2cc(CN3C[C@@H]4C[C@H]3CO4)ncn2)nc(C(C)(F)F)n1 [Example 905, N-(5-(6-(((1S,4S)-2-oxa-5-azabicyclo[2.2.1]heptan-5-yl)methyl)pyrimidin-4-yl)-4-((2-(1,1-difluoroethyl)-6-ethylpyrimidin-4-yl)amino)pyridin-2-yl)acetamide]"
3,≤ 10 nM,"CCc1cc(Nc2cc(NC(C)=O)ncc2-c2ccc(F)c(CN3C[C@@H]4C[C@H]3CO4)n2)nc(C(C)(F)F)n1 [Example 906, N-(6-(((1S,4S)-2-oxa-5-azabicyclo[2.2.1]heptan-5-yl)methyl)-4′-((2-(1,1-difluoroethyl)-6-ethylpyrimidin-4-yl)amino)-5-fluoro-[2,3′-bipyridin]-6′-yl)acetamide]"
4,≤ 10 nM,"CCc1cc(Nc2cc(NC(C)=O)ncc2-c2ccc(CN3CCCC3)cn2)nc(C(C)(F)F)n1 [Example 901, N-(4′-((2-(1,1-difluoroethyl)-6-ethylpyrimidin-4-yl)amino)-5-(pyrrolidin-1-ylmethyl)-[2,3′-bipyridin]-6′-yl)acetamide]"

# Same assay, conditions: MSD
row,SMILES,IC50
1,"COC(C)CCOc1cnc(NC(C)=O)cc1Nc1cc(C)nc(C(C)(F)F)n1 (stereo not drawn) [Example 137, N-(4-((2-(1,1-difluoroethyl)-6-methylpyrimidin-4-yl)amino)-5-(3-methoxybutoxy)pyridin-2-yl)acetamide]",10 to 100 nM
2,"CC(=O)Nc1cc(Nc2cc(C)nc(C(C)(F)F)n2)c(OCc2ncccn2)cn1 [Example 134, N-(4-((2-(1,1-difluoroethyl)-6-methylpyrimidin-4-yl)amino)-5-(pyrimidin-2-ylmethoxy)pyridin-2-yl)acetamide]",100 to 1000 nM
3,"COc1ccc(Oc2cnc(NC(C)=O)cc2Nc2cc(C)nc(C(C)(F)F)n2)nn1 [Example 358, N-(4-((2-(1,1-difluoroethyl)-6-methylpyrimidin-4-yl)amino)-5-((6-methoxypyridazin-3-yl)oxy)pyridin-2-yl)acetamide]",≥ 1000 nM
4,"CC(=O)Nc1cc(Nc2cc(C)nc(C(C)(F)F)n2)c(OCc2csnc2C)cn1 [Example 111, N-(4-((2-(1,1-difluoroethyl)-6-methylpyrimidin-4-yl)amino)-5-((3-methylisothiazol-4-yl)methoxy)pyridin-2-yl)acetamide]",100 to 1000 nM
5,"CCCCOc1cnc(NC(C)=O)cc1Nc1cc(C)nc(C(C)(F)F)n1 [Example 105, N-(5-butoxy-4-((2-(1,1-difluoroethyl)-6-methylpyrimidin-4-yl)amino)pyridin-2-yl)acetamide]",≤ 10 nM
6,"CC(=O)Nc1cc(Nc2cc(C)nc(C(C)(F)F)n2)c(OCC2(C)CC2)cn1 [Example 58, N-(4-((2-(1,1-difluoroethyl)-6-methylpyrimidin-4-yl)amino)-5-((1-methylcyclopropyl)methoxy)pyridin-2-yl)acetamide]",10 to 100 nM
7,"COCCOc1cnc(NC(C)=O)cc1Nc1cccc(C(F)CF)n1 (stereo not drawn) [Example 73, N-(4-((6-(1,2-difluoroethyl)pyridin-2-yl)amino)-5-(2-methoxyethoxy)pyridin-2-yl)acetamide]",10 to 100 nM
8,"COc1ccnc(-c2cnc(NC(C)=O)cc2Nc2cc(C)nc(C(C)(F)F)n2)n1 [Example 658, N-(4-((2-(1,1-difluoroethyl)-6-methylpyrimidin-4-yl)amino)-5-(4-methoxypyrimidin-2-yl)pyridin-2-yl)acetamide]",≥ 1000 nM
9,"COCc1ccc(-c2cnc(NC(C)=O)cc2Nc2cc(C)nc(C3CCCOC3)n2)nc1 (stereo not drawn) [Example 571, N-(5-(methoxymethyl)-4′-((6-methyl-2-(tetrahydrO2H-pyran-3-yl)pyrimidin-4-yl)amino)-[2,3′-bipyridin]-6′-yl)acetamide]",10 to 100 nM

# Next, values leading:
row,IC50,SMILES
1,10 to 100 nM,"CC(=O)Nc1cc(Nc2cc(C)nc(C(C)(F)F)n2)c(-c2cc3n(n2)CCNC3=O)cn1 [Example 223, N-(4-((2-(1,1-difluoroethyl)-6-methylpyrimidin-4-yl)amino)-5-(4-oxo-4,5,6,7-tetrahydropyrazolo[1,5-a]pyrazin-2-yl)pyridin-2-yl)acetamide]"
2,10 to 100 nM,"COc1cccc(COc2cnc(NC(C)=O)cc2Nc2cc(C)nc(C(C)(F)F)n2)n1 [Example 132, N-(4-((2-(1,1-difluoroethyl)-6-methylpyrimidin-4-yl)amino)-5-((6-methoxypyridin-2-y1)methoxy)pyridin-2-yl)acetamide]"
3,≤ 10 nM,"CC(=O)Nc1cc(Nc2cc(C)nc(C(C)(F)F)n2)c(OCc2cc(C)ccn2)cn1 [Example 133, N-(4-((2-(1,1-difluoroethyl)-6-methylpyrimidin-4-yl)amino)-5-((4-methylpyridin-2-yl)methoxy)pyridin-2-yl)acetamide]"
4,10 to 100 nM,"COCCCOc1cnc(NC(C)=O)cc1Nc1cc(C)nc(C(C)(F)F)n1 [Example 107, N-(4-((2-(1,1-difluoroethyl)-6-methylpyrimidin-4-yl)amino)-5-(3-methoxypropoxy)pyridin-2-yl)acetamide]"
5,≤ 10 nM,"CC(=O)Nc1cc(Nc2cc(C)nc(C(C)(F)F)n2)c(-c2ccnc(N(C)C)n2)cn1 [Example 629, N-(4-((2-(1,1-difluoroethyl)-6-methylpyrimidin-4-yl)amino)-5-(2-(dimethylamino)pyrimidin-4-yl)pyridin-2-yl)acetamide]"
6,10 to 100 nM,"COc1cnc(C(C)(F)F)nc1Nc1cc(NC(C)=O)ncc1-c1ccn(C)n1 [Example 590, N-(4-((2-(1,1-difluoroethyl)-5-methoxypyrimidin-4-yl)amino)-5-(1-methyl-1H-pyrazol-3-yl)pyridin-2-yl)acetamide]"
7,10 to 100 nM,"CC(=O)Nc1cc(Nc2cc(C)nc(C(C)(F)F)n2)c(OCCN2CCN(C)CC2)cn1 [Example 106, N-(4-((2-(1,1-difluoroethyl)-6-methylpyrimidin-4-yl)amino)-5-(2-(4-methylpiperazin-1-yl)ethoxy)pyridin-2-yl)acetamide]"
8,10 to 100 nM,"CC(=O)Nc1cc(Nc2cc(C)nc(C(C)(F)F)n2)c(-c2nn(C)cc2F)cn1 [Example 616, N-(4-((2-(1,1-difluoroethyl)-6-methylpyrimidin-4-yl)amino)-5-(4-fluorO1-methyl-1H-pyrazol-3-yl)pyridin-2-yl)acetamide]"
9,10 to 100 nM,"CC(=O)Nc1cc(Nc2cc(C)nc(C(C)(F)F)n2)c(OCc2cnccn2)cn1 [Example 126, N-(4-((2-(1,1-difluoroethyl)-6-methylpyrimidin-4-yl)amino)-5-(pyrazin-2-ylmethoxy)pyridin-2-yl)acetamide]"
10,10 to 100 nM,"CC(=O)Nc1cc(Nc2cc(C)nc(C(C)(F)F)n2)c(OCc2nc(C)cs2)cn1 [Example 112, N-(4-((2-(1,1-difluoroethyl)-6-methylpyrimidin-4-yl)amino)-5-((4-methylthiazol-2-yl)methoxy)pyridin-2-yl)acetamide]"
11,≤ 10 nM,"CC(=O)Nc1cc(Nc2cc(C)nc(C(C)(F)F)n2)c(OCc2csc(C)n2)cn1 [Example 117, N-(4-((2-(1,1-difluoroethyl)-6-methylpyrimidin-4-yl)amino)-5-((2-methylthiazol-4-yl)methoxy)pyridin-2-yl)acetamide]"
